Experimental data: BindingDB's records for doi:10.7270/Q2862DWJ (Nmmlsc, 2009)

Each compound was assayed against Isoform Bcl-X(L) of Bcl-2-like protein 1 (Bcl-xL) (Homo sapiens, UniProt Q07817) (assay: Bim-Bcl-XL interaction inhibitors, hit retest, confirmation, biochemical, dose response, multiplexed, HTS hits (AID 2084)). Settings: inactive by the depositor's call.
Chain of Isoform Bcl-X(L) of Bcl-2-like protein 1 (Bcl-xL) (Q07817 whole entry G70A, canonical isoform): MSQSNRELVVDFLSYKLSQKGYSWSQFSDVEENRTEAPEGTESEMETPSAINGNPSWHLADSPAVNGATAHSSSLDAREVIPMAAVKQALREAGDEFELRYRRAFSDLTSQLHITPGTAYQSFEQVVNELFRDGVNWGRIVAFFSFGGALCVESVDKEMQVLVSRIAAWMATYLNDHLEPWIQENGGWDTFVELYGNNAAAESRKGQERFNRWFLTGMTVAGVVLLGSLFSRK

First: O=c1[nH]c(O)c(Cc2ccc(-c3cc(Cl)ccc3[N+](=O)[O-])o2)c(=O)[nH]1
Second: Cc1ccc(-c2nc3c(c(=O)[nH]c(=O)n3Cc3ccccc3)n2C)o1 [7-methyl-8-(5-methyl-2-furanyl)-3-(phenylmethyl)purine-2,6-dione]
The EC50 of the first is 1.6-fold lower: 26.4 µM for the first, 43.5 µM for the second. The first is the more potent here.

Going from `CNC1CCC(Br)CC(C(=O)C=Cc2cccc(OC)c2OC)C1=O` (stereo not given) [4-bromo-2-[(E)-3-(2,3-dimethoxyphenyl)-1-oxoprop-2-enyl]-7-(methylamino)-1-cycloheptanone] to `COc1ccc(CCNC(=O)c2ccc3nc(-c4ccco4)c(-c4ccco4)nc3c2)cc1OC` [N-[2-(3,4-dimethoxyphenyl)ethyl]-2,3-di-2-furylquinoxaline-6-carboxamide], the EC50 falls from 45.5 µM to 18.4 µM (2.5-fold).

In the case of `Clc1nc(NCc2cccnc2)nc(N2CCOCC2)n1` [MLS000121154], the EC50 is reported as 15.1 µM.
